One assay relates to infectious microorganism. Conditions: cited from earlier work.
The subject of a further assay is Influenza A. In kind it is cell-based.
Another assay concerns SARS COVID-19. In kind it is cell-based. Conditions: for TCID 50% viral kill: 5-minute exposure.
A further assay relates to Ebola virus. Conditions: exposure times of at least several minutes required, cited from earlier work.

Like-named read-outs stand apart in the source and are kept apart here.

The source of these data is patent US20230309562A1 (priority 2020, published 2023).

Turning to `OCl` [HOCl, hypochlorous acid], in the assay with infectious microorganism (2.6 ppm, in 5 minutes), the growth inhibition is 100%. The LD50 in the assay on infectious microorganism (reported) was 0.0104-0.156 ppm. The “TCID 50% viral kill” value in the assay with Influenza A, in the assay on SARS COVID-19 (1 ppm), in the assay on SARS COVID-19 (2.5 ppm), with SARS COVID-19 (10 ppm) and in the assay with SARS COVID-19 (25 ppm) was “viral kill positive” each time. Besides, the “virus kill by HOCl treatment” value is given as “killed” with Influenza A; “killed” in the assay with SARS COVID-19 (concentrations of between 1 ppm and 25 ppm).

`OCl` [sodium hypochlorite, Sodium hypochlorite]: the “destruction of Ebola virus” value in the assay on Ebola virus (0.5% solution) and with Ebola virus (1% solution) was “effectively destroy” in each case.
